# ChEMBL document CHEMBL5634092, “Design, synthesis, and biological evaluation of novel HDAC/CD13 dual inhibitors for the treatment of cancer” (Eur J Med Chem, 2023)
# How the values were obtained:
# [1] = target: T1, Aminopeptidase N (Sus scrofa, UniProt P15145); experiment: Inhibition of porcine kidney CD13 using L-leucine-p-nitroanilide as substrate incubated for 30 mins by microplate reader analysis
# T1 sequence (P15145 whole entry): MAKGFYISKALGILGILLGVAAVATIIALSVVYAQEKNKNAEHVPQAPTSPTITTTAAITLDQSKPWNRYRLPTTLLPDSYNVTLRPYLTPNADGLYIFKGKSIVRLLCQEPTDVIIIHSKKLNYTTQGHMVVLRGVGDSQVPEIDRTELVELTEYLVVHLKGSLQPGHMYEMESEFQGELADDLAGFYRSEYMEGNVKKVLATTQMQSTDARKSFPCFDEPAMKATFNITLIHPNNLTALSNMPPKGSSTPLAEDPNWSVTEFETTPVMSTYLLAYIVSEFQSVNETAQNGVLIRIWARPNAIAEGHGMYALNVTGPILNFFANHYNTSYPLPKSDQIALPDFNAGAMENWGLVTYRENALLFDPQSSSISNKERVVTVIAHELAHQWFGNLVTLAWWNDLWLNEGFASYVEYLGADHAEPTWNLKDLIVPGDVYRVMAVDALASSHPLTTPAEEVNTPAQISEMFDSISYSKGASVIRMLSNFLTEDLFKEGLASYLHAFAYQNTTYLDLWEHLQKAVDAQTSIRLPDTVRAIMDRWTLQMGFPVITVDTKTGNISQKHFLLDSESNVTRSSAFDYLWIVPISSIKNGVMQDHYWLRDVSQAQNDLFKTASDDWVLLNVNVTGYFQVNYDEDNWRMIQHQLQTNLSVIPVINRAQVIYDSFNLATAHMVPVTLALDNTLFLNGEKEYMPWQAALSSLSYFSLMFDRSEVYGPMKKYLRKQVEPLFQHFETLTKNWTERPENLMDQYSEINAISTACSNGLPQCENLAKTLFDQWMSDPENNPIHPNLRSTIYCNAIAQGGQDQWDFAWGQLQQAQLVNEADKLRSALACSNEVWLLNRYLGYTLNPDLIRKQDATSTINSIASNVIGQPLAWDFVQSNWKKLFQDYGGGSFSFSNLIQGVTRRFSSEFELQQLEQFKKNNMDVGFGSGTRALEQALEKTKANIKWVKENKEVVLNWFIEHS
# [2] = target: Histone deacetylase 3 (Homo sapiens, UniProt O15379); experiment: Inhibition of human HDAC3 using Boc-Lys (acetyl)-AMC as substrate incubated for 1 hr followed by substrate addition and further incubated for 2 hrs by fluorescence assay
# Sequence of Histone deacetylase 3 (O15379 whole entry): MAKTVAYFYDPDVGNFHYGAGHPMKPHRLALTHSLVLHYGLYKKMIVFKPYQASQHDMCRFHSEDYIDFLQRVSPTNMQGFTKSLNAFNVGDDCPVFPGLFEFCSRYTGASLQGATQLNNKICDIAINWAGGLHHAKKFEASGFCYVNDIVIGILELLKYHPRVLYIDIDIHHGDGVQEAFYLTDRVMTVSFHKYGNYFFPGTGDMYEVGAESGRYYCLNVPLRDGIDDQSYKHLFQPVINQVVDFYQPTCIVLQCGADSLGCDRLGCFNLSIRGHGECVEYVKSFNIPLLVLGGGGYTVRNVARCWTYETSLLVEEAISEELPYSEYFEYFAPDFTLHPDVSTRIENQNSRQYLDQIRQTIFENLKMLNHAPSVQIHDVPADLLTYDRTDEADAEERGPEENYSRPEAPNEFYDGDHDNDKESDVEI
# [3] = target: Histone deacetylase 2 (Homo sapiens, UniProt Q92769); experiment: Inhibition of human HDAC2 using Boc-Lys (acetyl)-AMC as substrate incubated for 1 hr followed by substrate addition and further incubated for 2 hrs by fluorescence assay
# Sequence of Histone deacetylase 2 (Q92769 whole entry): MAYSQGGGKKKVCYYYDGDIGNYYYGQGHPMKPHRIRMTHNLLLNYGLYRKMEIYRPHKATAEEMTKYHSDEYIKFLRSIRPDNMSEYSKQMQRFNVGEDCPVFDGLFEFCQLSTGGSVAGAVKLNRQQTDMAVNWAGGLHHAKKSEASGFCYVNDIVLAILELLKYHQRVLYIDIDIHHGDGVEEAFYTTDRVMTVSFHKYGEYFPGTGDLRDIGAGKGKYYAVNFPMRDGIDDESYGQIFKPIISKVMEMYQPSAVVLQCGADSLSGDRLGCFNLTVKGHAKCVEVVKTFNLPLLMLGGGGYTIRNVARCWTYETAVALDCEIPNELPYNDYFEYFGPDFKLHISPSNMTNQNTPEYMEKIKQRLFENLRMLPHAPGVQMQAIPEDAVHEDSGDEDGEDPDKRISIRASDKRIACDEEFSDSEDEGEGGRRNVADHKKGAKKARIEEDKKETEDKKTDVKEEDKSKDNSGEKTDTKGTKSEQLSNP
# [4] = test system: MV4-11; experiment: Antiproliferative activity against human MV4-11 cells incubated for 48 hrs by resazurin based microplate reader analysis; conditions: MV4-11, 48 h
# [5] = target: Histone deacetylase 1 (Homo sapiens, UniProt Q13547); experiment: Inhibition of human HDAC1 using Boc-Lys (acetyl)-AMC as substrate incubated for 1 hr followed by substrate addition and further incubated for 2 hrs by fluorescence assay
# Sequence of Histone deacetylase 1 (Q13547 whole entry): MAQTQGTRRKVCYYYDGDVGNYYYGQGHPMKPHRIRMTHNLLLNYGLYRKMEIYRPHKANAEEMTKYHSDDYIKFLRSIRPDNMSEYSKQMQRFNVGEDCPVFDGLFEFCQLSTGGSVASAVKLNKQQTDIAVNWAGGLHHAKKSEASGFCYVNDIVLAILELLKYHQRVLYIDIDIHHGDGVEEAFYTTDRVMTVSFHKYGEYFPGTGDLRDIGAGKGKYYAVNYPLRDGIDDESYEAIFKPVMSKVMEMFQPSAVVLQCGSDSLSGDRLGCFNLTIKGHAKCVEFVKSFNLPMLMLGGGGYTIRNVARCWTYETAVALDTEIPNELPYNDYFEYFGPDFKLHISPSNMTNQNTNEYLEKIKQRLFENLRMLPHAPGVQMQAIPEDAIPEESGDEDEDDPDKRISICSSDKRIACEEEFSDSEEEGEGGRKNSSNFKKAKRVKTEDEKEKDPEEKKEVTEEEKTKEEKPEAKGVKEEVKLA
# [6] = target: Aminopeptidase N (Homo sapiens, UniProt P15144); experiment: Inhibition of human CD13 using L-leucine-p-nitroanilide as substrate incubated for 30 mins by microplate reader analysis
# Sequence of Aminopeptidase N (Homo sapiens, UniProt P15144) (P15144 whole entry): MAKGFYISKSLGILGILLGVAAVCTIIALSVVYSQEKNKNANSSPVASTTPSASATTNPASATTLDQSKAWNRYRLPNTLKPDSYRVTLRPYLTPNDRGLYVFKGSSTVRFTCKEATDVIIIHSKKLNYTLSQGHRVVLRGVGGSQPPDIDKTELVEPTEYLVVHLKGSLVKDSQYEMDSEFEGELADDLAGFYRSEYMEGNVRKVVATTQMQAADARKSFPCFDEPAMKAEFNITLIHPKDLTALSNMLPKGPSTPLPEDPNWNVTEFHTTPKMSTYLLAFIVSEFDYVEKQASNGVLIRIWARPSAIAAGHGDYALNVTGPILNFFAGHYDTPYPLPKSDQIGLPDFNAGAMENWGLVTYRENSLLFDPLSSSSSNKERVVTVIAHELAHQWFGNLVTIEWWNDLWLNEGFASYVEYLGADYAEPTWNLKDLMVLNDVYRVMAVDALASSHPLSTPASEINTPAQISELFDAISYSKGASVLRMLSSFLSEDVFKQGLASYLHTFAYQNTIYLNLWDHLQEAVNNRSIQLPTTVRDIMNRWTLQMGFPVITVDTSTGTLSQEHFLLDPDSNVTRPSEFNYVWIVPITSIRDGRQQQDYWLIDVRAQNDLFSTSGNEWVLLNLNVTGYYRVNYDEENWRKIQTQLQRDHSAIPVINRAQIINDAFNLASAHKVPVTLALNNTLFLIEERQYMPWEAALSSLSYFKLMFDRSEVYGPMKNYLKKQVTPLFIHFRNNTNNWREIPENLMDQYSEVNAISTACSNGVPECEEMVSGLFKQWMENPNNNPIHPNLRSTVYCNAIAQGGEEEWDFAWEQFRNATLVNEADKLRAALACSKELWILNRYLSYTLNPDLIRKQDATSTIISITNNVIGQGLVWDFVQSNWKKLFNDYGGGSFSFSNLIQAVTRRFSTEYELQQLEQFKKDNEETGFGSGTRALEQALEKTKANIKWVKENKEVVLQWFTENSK
# [7] = test system: MV4-11; experiment: Induction of apoptosis in human MV4-11 cells assessed as apoptotic rate at 2 uM incubated for 24 hrs by Annexin V-FITC staining based flow cytometry (reference value: 24.09 %); type: functional
# [8] = test system: HL-60; experiment: Antiproliferative activity against human HL-60 cells incubated for 48 hrs by resazurin based microplate reader analysis; conditions: HL-60, 48 h
# [9] = test system: JeKo-1; experiment: Antiproliferative activity against human JeKo-1 cells incubated for 48 hrs by resazurin based microplate reader analysis; conditions: JeKo-1, 48 h
# [10] = test system: A549; experiment: Antiproliferative activity against human A549 cells incubated for 48 hrs by resazurin based microplate reader analysis; conditions: A549, 48 h
# [11] = test system: K562; experiment: Antiproliferative activity against human K562 cells incubated for 48 hrs by resazurin based microplate reader analysis; conditions: K562, 48 h
# [12] = test system: A549; experiment: Induction of apoptosis in human A549 cells assessed as apoptotic rate at 20 uM incubated for 24 hrs by Annexin V-FITC staining based flow cytometry (reference value: 8.02 %); type: functional
# [13] = test system: BXPC-3; experiment: Antiproliferative activity against human BXPC-3 cells incubated for 48 hrs by resazurin based microplate reader analysis; conditions: BXPC-3, 48 h
# [14] = Cytotoxicity against human HL7702 cells incubated for 48 hrs by resazurin based microplate reader analysis; conditions: HL7702 (L02) cells
# [15] = target: T2, Histone deacetylase 8 (Homo sapiens, UniProt Q9BY41); experiment: Inhibition of human HDAC8 using Boc-Lys (tri-fluoroacetyl)-AMC as substrate incubated for 1 hr followed by substrate addition and further incubated for 2 hrs by fluorescence assay
# T2 sequence (Q9BY41 whole entry): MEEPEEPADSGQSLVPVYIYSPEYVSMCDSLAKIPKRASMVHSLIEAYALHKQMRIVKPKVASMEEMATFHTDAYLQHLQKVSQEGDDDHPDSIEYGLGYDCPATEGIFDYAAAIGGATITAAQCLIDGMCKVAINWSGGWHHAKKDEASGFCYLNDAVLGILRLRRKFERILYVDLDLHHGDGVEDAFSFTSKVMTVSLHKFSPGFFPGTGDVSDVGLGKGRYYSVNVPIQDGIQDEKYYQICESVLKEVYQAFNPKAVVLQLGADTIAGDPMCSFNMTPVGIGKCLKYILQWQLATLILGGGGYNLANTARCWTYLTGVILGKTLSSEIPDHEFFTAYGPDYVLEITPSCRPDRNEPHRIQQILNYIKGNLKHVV
# [16] = target: T3, Protein deacetylase HDAC6 (Homo sapiens, UniProt Q9UBN7); experiment: Inhibition of human HDAC6 using Boc-Lys (acetyl)-AMC as substrate incubated for 1 hr followed by substrate addition and further incubated for 2 hrs by fluorescence assay
# T3 sequence (Q9UBN7 whole entry): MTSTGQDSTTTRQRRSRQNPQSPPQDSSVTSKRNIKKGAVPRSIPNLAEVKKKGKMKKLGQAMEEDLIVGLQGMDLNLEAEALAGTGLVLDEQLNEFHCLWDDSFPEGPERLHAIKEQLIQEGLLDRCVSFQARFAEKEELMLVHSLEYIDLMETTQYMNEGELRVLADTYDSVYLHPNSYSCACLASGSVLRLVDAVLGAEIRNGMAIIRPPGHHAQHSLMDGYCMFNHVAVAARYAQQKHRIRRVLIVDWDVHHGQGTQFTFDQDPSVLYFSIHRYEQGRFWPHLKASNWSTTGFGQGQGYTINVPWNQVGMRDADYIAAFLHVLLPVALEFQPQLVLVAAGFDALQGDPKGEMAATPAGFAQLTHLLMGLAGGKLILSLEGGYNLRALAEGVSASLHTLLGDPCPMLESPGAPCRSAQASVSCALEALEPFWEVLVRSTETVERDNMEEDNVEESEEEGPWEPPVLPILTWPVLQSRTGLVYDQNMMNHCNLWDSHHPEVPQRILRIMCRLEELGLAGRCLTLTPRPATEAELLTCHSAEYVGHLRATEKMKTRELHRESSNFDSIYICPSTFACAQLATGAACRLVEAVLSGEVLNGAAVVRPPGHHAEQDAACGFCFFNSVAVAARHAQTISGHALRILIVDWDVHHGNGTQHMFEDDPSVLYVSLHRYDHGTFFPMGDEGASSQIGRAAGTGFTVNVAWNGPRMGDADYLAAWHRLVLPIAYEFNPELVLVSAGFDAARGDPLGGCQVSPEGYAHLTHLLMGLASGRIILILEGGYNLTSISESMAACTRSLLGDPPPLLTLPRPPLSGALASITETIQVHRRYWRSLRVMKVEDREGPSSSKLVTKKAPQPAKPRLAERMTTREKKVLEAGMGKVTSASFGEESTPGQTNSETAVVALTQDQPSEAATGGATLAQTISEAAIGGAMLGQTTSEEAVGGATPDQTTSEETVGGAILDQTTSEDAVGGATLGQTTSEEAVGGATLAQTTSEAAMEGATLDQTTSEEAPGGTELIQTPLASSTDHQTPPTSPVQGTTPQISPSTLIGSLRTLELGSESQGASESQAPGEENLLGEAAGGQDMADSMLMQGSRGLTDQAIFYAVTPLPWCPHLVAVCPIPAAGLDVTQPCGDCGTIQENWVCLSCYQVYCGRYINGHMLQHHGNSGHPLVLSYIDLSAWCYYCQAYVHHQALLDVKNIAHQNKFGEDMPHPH
IC50 [1],IC50 [2],SMILES,further results
> 20000 nM,60 nM,CCCNNC(=O)c1ccc(CNC(=O)[C@H](CC(C)C)NC(=O)[C@H](O)[C@@H](N)Cc2ccccc2)cc1,IC50 [6]: > 20000 nM
1350 nM,2420 nM,COC(=O)c1ccc(CNC(=O)[C@H](CC(C)C)NC(=O)[C@@H](O)[C@H](N)Cc2ccccc2)cc1.Cl,Activity [7]: 33.7%; IC50 [6]: 480 nM; IC50 [3]: > 10000 nM; IC50 [4]: > 20000 nM; IC50 [8]: > 20000 nM; IC50 [9]: > 20000 nM; IC50 [10]: > 20000 nM; IC50 [11]: > 20000 nM; IC50 [5]: > 10000 nM; Activity [12]: 8.31%; IC50 [13]: > 20000 nM; IC50 at 48 h [14]: > 100000 nM
400 nM,80 nM,CCCNNC(=O)c1ccc(CNC(=O)[C@H](CC(C)C)NC(=O)[C@@H](NC(=O)[C@@H](O)[C@H](N)Cc2ccccc2)[C@@H](C)CC)cc1,
550 nM,1430 nM,CC(C)C[C@H](NC(=O)[C@@H](O)[C@H](N)Cc1ccccc1)C(=O)NCc1ccc(C(=O)NO)cc1,IC50 [15]: 1350 nM; IC50 [16]: 330 nM
1630 nM,60 nM,CC(C)C[C@H](NC(=O)[C@@H](O)[C@H](N)Cc1ccccc1)C(=O)NCc1ccc(C(=O)Nc2ccccc2N)cc1,
2690 nM,,CCCNNC(=O)c1ccc(CNC(=O)[C@H]2CCCN2C(=O)[C@H](CC(C)C)NC(=O)[C@@H](O)[C@H](N)Cc2ccccc2)cc1,

# The remaining lines, values behind:
SMILES,IC50 [1],IC50 [2],further results
CCCNNC(=O)CCCCCNC(=O)[C@H](CC(C)C)NC(=O)[C@@H](O)[C@H](N)Cc1ccccc1,3030 nM,90 nM,
CCCNNC(=O)[C@H](CC(C)C)NC(=O)[C@@H](O)[C@H](N)Cc1ccccc1,18200 nM,> 10000 nM,IC50 [3]: > 10000 nM; IC50 [4]: > 20000 nM; IC50 [5]: > 10000 nM
CCCNNC(=O)c1ccc(CNC(=O)[C@H](CC(C)C)NC(=O)NCc2cccc3ccccc23)cc1,> 20000 nM,120 nM,
CCCNNC(=O)c1ccc(CNC(=O)[C@H](CC(C)C)NC(=O)Nc2c(C)cccc2C)cc1,> 20000 nM,290 nM,
CCCNNC(=O)CCCCCCNC(=O)[C@H](CC(C)C)NC(=O)[C@@H](O)[C@H](N)Cc1ccccc1,9530 nM,50 nM,
CC(C)C[C@H](NC(=O)[C@@H](O)[C@H](N)Cc1ccccc1)C(=O)O [UBENIMEX],,> 10000 nM,IC50 [3]: > 10000 nM; IC50 [4]: > 20000 nM; IC50 [5]: > 10000 nM
O=C(CCCCCCC(=O)Nc1ccccc1)NO [VORINOSTAT],> 20000 nM,,
